Where a name gives a salt, the structure may show the parent alone. Read-outs that look alike come from different tables or passages of the source.
Legend:
[1] = tested on: BaCl2 -induced contraction of the duodenum; assay: Antispasmodic activity compared to Papaverine (BaCl2-induced contraction of the duodenum); conditions: Papaverine = 1
[2] = Chronic toxicity, oral, 3 months, young adult rats; type: in vivo, rats of Sprague Dawley (Charles River) strain; conditions: oral, 25, 75 and 150 mg/kg during 3 months
Procedure: The compound of Example 1 was administered orally to young adult rats of Sprague Dawley (Charles River) strain, at dosages of 25, 75 and 150 mg/kg during 3 months.

[3] = Acute toxicity (LD 50%, semi-logarithmic technique of Lichfield and Wilcoxon); type: in vivo; conditions: for LD50: in vivo
From the text: Each value represents the LD 50% expressed as mg/kg, according to the semi-logarithmic technique disclosed by Lichfield and Wilcoxon.

[4] = tested on: aconitine-induced rhythm disorders; assay: Preventive action on aconitine-induced rhythm disorders; type: in vivo, rats; conditions: Aconitine 50mg/l, 0.2ml/mn, ±SD, control 85±15
Procedure: (§1) a. Two Examples are given to show the preventive action, by the intravenous route:
2. in rats, on aconitine-induced rhythm disorders.
(§2) The various compounds of the above Table are administered just prior to
(§3) perfusion of the arrhythmogenic materials (K-Strophantine,
(§4) K-Strophantine-Adrenaline, Aconitine). The values represent the period of
(§5) time ± SD (standard deviation) before the first signs of arrhythmia

[5] = tested on: surface anesthesia in rabbits; assay: Surface anesthesia in rabbits compared to Butacaine; type: in vivo; conditions: Butacaine = 1
[6] = tested on: arrhythmia induced by Strophantine in combination with adrenaline; assay: Preventive action on arrhythmia induced by perfusion of K-Strophantine in combination with adrenaline; type: in vivo, guinea-pits; conditions: K-Strophantine 0.I5mg/ml + Adrenaline 5μg/ml, ±SD, control 1.21±0.33
Procedure: as §1
(§6) 1. in guinea-pits, on arrhythmia induced by Strophantine alone or in combination with adrenaline;
as §2, §3, §4, §5

[7] = Chronic toxicity, intravenous, 1 month, young male adult mice; type: in vivo; conditions: 1 and 5 mg/kg during 1 month
Procedure: The compound of Example 1 was also administered intravenously to young male adult mice, at dosages of 1 and 5 mg/kg during 1 month.

[8] = tested on: conduction anesthesia in guinea-pigs; assay: Conduction anesthesia in guinea-pigs compared to Xylocaine; type: in vivo; conditions: Xylocaine = 1
[9] = tested on: arrhythmia induced by Strophantine alone; assay: Preventive action on arrhythmia induced by perfusion of K-Strophantine alone; type: in vivo, guinea-pits; conditions: K-Strophantine 0.I5mg/ml, 0.5ml/mn, ±SD, control 2.45±0.22
Procedure: as §1, §6, §2, §3, §4, §5

[10] = tested on: disorders of the cardiac rhythm; assay: Clinical tests, oral administration in patients suffering from disorders of the cardiac rhythm; type: in vivo; conditions: oral, 200, 400 and 600 mg
[11] = tested on: disorders of the cardiac rhythm in non-anesthetized dogs 24 hours after coronary ligation; assay: Curative activity on disorders of the cardiac rhythm 24 hours after coronary ligation (method according to Harris); type: in vivo; conditions: for Percent sinus rhythm after administration of the compound: extreme values in parenthesis
From the text: b. An Example is given to show the curative activity by the oral route.
As is apparent from following Table IV, the effect is a function of the disage administered.

[12] = intravenous route, read-out: LD50, intravenous route
[13] = oral route, read-out: LD50, oral route

| Structure (SMILES) | Ratio between the dosage of Papaverine and the dosage of Compound (1) producing the same antispasmodic activity [1] | LD50 [3, 12] | LD50 [3, 13] | Ratio between the activity of compound (I) and the activity of Butacaine for surface anesthesia, on administration of a same dosage [5] | Ratio between the activity of compound (I) and the activity of Xylocaine for conduction anesthesia, on administration of a same dosage [8] | other results |
| --- | --- | --- | --- | --- | --- | --- |
| CCN(CC)CC(O)CN(C)c1nc(-c2ccccc2)no1 (stereo not drawn) [Example 1, 5-N-(3-diethylamino-2-hydroxy-propyl)-N-methylamino-3-phenyl-1,2,4-oxadiazole fumarate hydrate] | 1.5 | 30 mg/kg | 280 mg/kg | 1.5 | 1 | change of weight of the organs on autopsy [2]: No change of weight of the organs was found; hematologic examination, biochemical blood tests and urinalysis [2]: No anomaly was detected; histological anomaly on anatomicopathological examination [2]: No histological anomaly, and particularly no liver, kidney or brain injury was found; period of time before the first signs of arrhythmia appear ([4]; 5 mg/kg intravenous): 141 ± 28 s; period of time before the first signs of arrhythmia appear ([4]; 10 mg/kg intravenous): 126 ± 23 s; period of time before the first signs of arrhythmia appear ([6]; 10 mg/kg intravenous): 1.62±0.42 decimal minutes; glycemia and serum transaminase level [7]: comparable in the treated animals and in the control animals; hematological examination [7]: No substantial modifications were found; histological anomaly on autopsy [7]: No histological anomaly was found on autopsy, particularly no cytologic injury of the liver, the kidneys, the pancreas, the heart or the brain; local tolerance of the injections [7]: well tolerated locally; period of time before the first signs of arrhythmia appear ([9]; 5 mg/kg intravenous): 3.27±0.4 decimal minutes; period of time before the first signs of arrhythmia appear ([9]; 10 mg/kg intravenous): 3.18±0.33 decimal minutes; effects in patients suffering from disorders of the cardiac rhythm [10]: beneficial effects; Tolerance ([10]; patients): good; Percent sinus rhythm after administration of the compound ([11]; 10 mg/kg oral, 3 tests, prior to administration 5%(0-15%)): 25%(0-65%); Percent sinus rhythm after administration of the compound ([11]; 25 mg/kg oral, 8 tests, prior to administration 5.6% (0-18%)): 59%(5-100%); Percent sinus rhythm after administration of the compound ([11]; 50 mg/kg oral, 6 tests, prior to administration 7.6% (0-20%)): 71.6% (25-100%); curative activity on disorders of the cardiac rhythm after coronary ligation (in words) ([11]; non-anesthetized dogs, oral route): corrects the disorders of the cardiac rhythm |
| CCN(CC)CC(O)CNc1nc(-c2ccccc2)no1 (stereo not drawn) [Example 2] | 1 | 55 mg/kg | 700 mg/kg | 1 | 1.4 | period of time before the first signs of arrhythmia appear ([4]; 10 mg/kg intravenous): 155 ± 32 s; period of time before the first signs of arrhythmia appear ([6]; 10 mg/kg intravenous): 2.73±0.5 decimal minutes; period of time before the first signs of arrhythmia appear ([9]; 10 mg/kg intravenous): 3.04±0.52 decimal minutes |
| CCN(CC)CC(O)CNc1nc(-c2ccc(F)cc2)no1 (stereo not drawn) [Example 4, 5-(3-diethylamino-2-hydroxy-propyl)-amino-3-(4-fluorophenyl)-1,2,4-oxadiazole fumarate] | – | – | 750 mg/kg | 1.4 | 1.5 | – |
| CCN(CC)CC(O)CN(CC)c1nc(-c2ccccc2)no1 (stereo not drawn) [Example 5] | 3 | 18 mg/kg | 200 mg/kg | 1.7 | 1.7 | period of time before the first signs of arrhythmia appear ([4]; 5 mg/kg intravenous): 119 ± 15.5 s; period of time before the first signs of arrhythmia appear ([6]; 5 mg/kg intravenous): 1.60±0.35 decimal minutes; period of time before the first signs of arrhythmia appear ([9]; 5 mg/kg intravenous): 3.43±0.51 decimal minutes |
| CCCN(CC(O)CN(CC)CC)c1nc(-c2ccccc2)no1 (stereo not drawn) [Example 7, 5-[N-(3-diethylamino-2-hydroxy-propyl)-N-propyl]amino-3-phenyl-1,2,4-oxadiazole fumarate hydrate] | – | – | 250 mg/kg | – | – | insoluble (entry in place of the intravenous LD50) ([3]; intravenous route): inso-; period of time before the first signs of arrhythmia appear ([4]; 2.5 mg/kg intravenous): 185 ± 48 s; period of time before the first signs of arrhythmia appear ([6]; 2.5 mg/kg intravenous): 1.74±0.16 decimal minutes; period of time before the first signs of arrhythmia appear ([9]; 2.5 mg/kg intravenous): 2.85±0.1 decimal minutes |
| C=CCN(CC(O)CN(CC)CC)c1nc(-c2ccccc2)no1 (stereo not drawn) [Example 8] | 2.5 | – | – | 1.5 | 1 | – |
| CCCN(CCC)CC(O)CN(C)c1nc(-c2ccccc2)no1 (stereo not drawn) [Example 9, 5-N-(3-dipropylamino-2-hydroxy-propyl)-N-methylamino-3-phenyl-1,2,4-oxadiazole fumarate hydrate] | 4 | 50 mg/kg | 250 mg/kg | 1.65 | 1.6 | period of time before the first signs of arrhythmia appear ([6]; 2.5 mg/kg intravenous): 1.77±0.08 decimal minutes |
| CN1CCN(CC(O)CNc2nc(-c3ccccc3)no2)CC1 (stereo not drawn) [Example 10] | – | – | 750 mg/kg | – | – | insoluble (entry in place of the intravenous LD50) ([3]; intravenous route): inso- |
| CCN(CC)CC(O)CN(C)c1nc(-c2ccncc2)no1 (stereo not drawn) [Example 11] | 0.2 | 100 mg/kg | 750 mg/kg | 1.5 | 1 | period of time before the first signs of arrhythmia appear ([4]; 20 mg/kg intravenous): 129 ± 21 s; period of time before the first signs of arrhythmia appear ([6]; 10 mg/kg intravenous): 1.3±0.3 decimal minutes |
| CCNCC(O)CN(CC)c1nc(-c2ccccc2)no1 (stereo not drawn) [Example 12] | 0.8 | – | – | 1 | 1.65 | – |
| COc1ccc(Cc2nccc3cc(OC)c(OC)cc23)cc1OC [Papaverine, reference compound] | 1 | – | – | – | – | – |
